Laboratory results reported in patent US20240175069A1, “BIOSYSTEM FOR PESTICIDE DETECTION” (priority 2022, published 2024).

Assays:
CYP2B11 [1] = biological target: T1, CYP2B11 (Canis lupus familiaris, UniProt P24460); experiment: Pesticides screening using CYP2B11 inhibition assay (BOMCC fluorescence, Example 4); settings: 400 μg/L pesticide; 5 pmol/mL CYP2B11; 3 μM BOMCC
T1 sequence (P24460 1-494): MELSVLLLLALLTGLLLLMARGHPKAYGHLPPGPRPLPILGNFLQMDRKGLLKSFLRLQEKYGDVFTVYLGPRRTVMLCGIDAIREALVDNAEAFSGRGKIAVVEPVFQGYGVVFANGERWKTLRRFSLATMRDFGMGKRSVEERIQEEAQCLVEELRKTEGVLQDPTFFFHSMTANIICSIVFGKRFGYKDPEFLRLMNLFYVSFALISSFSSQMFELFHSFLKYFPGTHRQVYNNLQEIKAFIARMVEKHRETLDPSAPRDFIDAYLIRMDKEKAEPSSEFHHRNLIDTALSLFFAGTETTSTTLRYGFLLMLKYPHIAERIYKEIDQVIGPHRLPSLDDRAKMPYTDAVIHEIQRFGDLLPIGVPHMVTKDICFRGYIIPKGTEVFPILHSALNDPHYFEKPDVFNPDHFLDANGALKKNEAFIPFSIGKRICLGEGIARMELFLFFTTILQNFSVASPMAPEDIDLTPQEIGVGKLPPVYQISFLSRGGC
Procedure: This assay was performed in a 96-well plate by adding 50 μL of chemical standard of pesticides in duplicate, previously prepared in assay buffer with 5% acetonitrile. Enzyme mixture consisted of 5 pmol/mL CYP2B11 (Cypex Limited) in the assay buffer: 75 mM potassium phosphate supplemented with 5 mM MgCl2, pH=8.0, containing 333 mM Glucose-6-phosphate and 30 U/mL Glucose-6-phosphate dehydrogenase. After preparation, 50 μL of enzyme mixture were added to each plate and incubated for 10 minutes at 37° C. After incubation, 10 μL of a substrate mixture containing 30 μM NADP^+ and 3 μM BOMCC in the phosphate buffer was added to the wells. The plate was incubated for 60 minutes at 37° C., and the fluorescence was monitored using 410/460 nm as excitation and emission wavelengths, respectively. A blank sample containing buffer solution was measured in same conditions and used to calculate the inhibition of the enzyme activity that was associated with the presence of pesticides concentration.

CYP2B10 [2] = biological target: T2, CYP2B10 (Mus musculus, UniProt P12791); experiment: Pesticides screening using CYP2B10 inhibition assay (MOBFC fluorescence, Example 1); assay type: biochemical; set-up: purchased Cypex Limited; bacterial membranes, E. coli by own knowledge; settings: 15 pmol/mL CYP2B10, 10 μM MOBFC, 10% acetonitrile standard; for I (%) at 200 μg/L: 200 μg/L pesticide; for I (%) at 400 μg/L: 400 μg/L pesticide
T2 sequence (P12791 1-491 isoform P12791-2 L55F/V178I/R251K/K253R/N280H/A281T/V298A/H308R/T321A/S349T/L376M/Q412H/S444N): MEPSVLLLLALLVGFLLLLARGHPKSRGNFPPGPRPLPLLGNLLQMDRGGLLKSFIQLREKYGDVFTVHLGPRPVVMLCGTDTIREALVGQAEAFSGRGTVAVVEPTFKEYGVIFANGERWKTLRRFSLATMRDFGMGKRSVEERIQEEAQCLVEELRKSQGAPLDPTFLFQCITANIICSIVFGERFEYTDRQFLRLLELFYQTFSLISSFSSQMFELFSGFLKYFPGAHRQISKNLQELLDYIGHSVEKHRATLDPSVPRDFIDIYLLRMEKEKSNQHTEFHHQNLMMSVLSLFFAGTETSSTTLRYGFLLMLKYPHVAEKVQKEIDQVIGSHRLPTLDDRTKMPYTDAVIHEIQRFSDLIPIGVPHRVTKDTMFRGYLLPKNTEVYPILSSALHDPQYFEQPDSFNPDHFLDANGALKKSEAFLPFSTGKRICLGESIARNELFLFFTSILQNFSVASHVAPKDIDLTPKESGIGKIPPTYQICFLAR
Procedure: An inhibition assay was performed using the enzyme CYP2B10 by contacting it to 200 μg/L and 400 μg/L of chlorpyrifos-ethyl, chlorpyrifos-methyl, prochloraz, diazinon and dicofol.

CYP2B10 [3] = biological target: T2, CYP2B10; experiment: CYP2B10 assay on extracts of spiked mushrooms, validation (Example 7); settings: mushroom spiked at 0.01 mg/kg, extracted; 15 pmol/mL CYP2B10; 10 μM MOBFC; triplicates over seven days
Procedure: The bioassay was performed in 500 μL tubes and in triplicate. 50 μL of extract was added to the tubes. Enzyme mixture was prepared following the protocols provided by the manufacturer (Cypex Limited) and consisted of 15 pmol/ml of CYP2B10 Bactosomes in the assay buffer: 75 mM potassium phosphate supplemented with 5 mM MgCl2, pH=8.0, containing 333 mM Glucose-6-phosphate and 30 U/mL Glucose-6-phosphate dehydrogenase. After the preparation, 50 μL of enzyme mixture were added to each tube. After reach room temperature 10 μL of substrate mixture (10 μM MOBFC and 30 μM NADP^+ diluted in potassium phosphate buffer 50 mM) was added to each tube. The tubes were incubated 60 minutes at 37° C. and when time passed, fluorescence signal was measured with a fluorometric reader, 370 nm and 520 nm were the excitation and emission wavelengths, respectively. A blank sample, buffer solution, was measured at the same time and the reduction of the signal, inhibition of enzyme activity, was calculated and associated with the presence of pesticide molecules.
The validation was carried out during seven days, comparing the signal obtained for triplicate samples of blank and doped mushroom.

CYP2B10 [4] = biological target: T2, CYP2B10; experiment: CYP2B10 inhibition assay with MOBFC/MOFC reporter substrate mixes (Example 3); assay type: biochemical; set-up: purchased Cypex Limited; bacterial membranes, E. coli by own knowledge; settings: 400 μg/L dicofol
Procedure: The enzyme CYP2B10 was exposed to 400 μg/L of dicofol pesticide, and the inhibition percentage was registered when reporter substrate concentration and composition was changed.

CYP2B11 [5] = biological target: T1, CYP2B11; experiment: Effect of dimethoate in CYP2B11 assay (BOMCC fluorescence, Example 2); assay type: biochemical; set-up: purchased Cypex Limited; settings: dog, CYP2B11 enzyme (Cypex Limited), pH 8, probe BOMCC (3 μM in substrate mixture); 2 mg/L dimethoate; 10 pmol/mL CYP2B11; 3 μM BOMCC
Text: Considering the inhibition percentage determined, it is possible to confirm that CYP2B11 enzyme is susceptible to be inhibited by dimethoate pesticide.

Human CYP2B6 = biological target: T3, Human CYP2B6 (Homo sapiens, UniProt P20813); experiment: Metrafenone inhibition assay on human CYP2B6 (Example 5); assay type: biochemical; settings: 500 μg/L metrafenone; CYP2B6 2.5 pmol/mL; BOMCC 3 μM
T3 construct: purchased Thermofisher Scientific; host or cells: baculosomes (microsomes of baculovirus-infected insect cells, by own knowledge)
T3 sequence (P20813 1-491): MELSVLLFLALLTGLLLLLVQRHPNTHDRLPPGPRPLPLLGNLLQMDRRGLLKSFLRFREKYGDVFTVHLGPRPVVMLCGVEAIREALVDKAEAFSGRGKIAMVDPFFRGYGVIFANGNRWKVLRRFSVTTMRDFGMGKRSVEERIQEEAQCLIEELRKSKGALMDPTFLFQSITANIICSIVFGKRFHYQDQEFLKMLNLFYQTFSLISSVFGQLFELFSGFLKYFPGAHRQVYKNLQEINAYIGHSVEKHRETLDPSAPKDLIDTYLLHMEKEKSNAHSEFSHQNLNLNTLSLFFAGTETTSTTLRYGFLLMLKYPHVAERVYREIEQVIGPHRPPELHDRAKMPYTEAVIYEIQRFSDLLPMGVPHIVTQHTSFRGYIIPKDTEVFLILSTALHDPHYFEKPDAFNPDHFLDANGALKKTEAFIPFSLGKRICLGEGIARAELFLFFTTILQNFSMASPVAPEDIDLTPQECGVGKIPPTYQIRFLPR
Procedure: (§1) This assay was performed in a 96-well plate by adding 50 μL of 500 μg/L of metrafenone chemical standard to wells in duplicate, previously prepared in assay buffer with 5% acetonitrile. CYP2B11 enzyme mixture consisted of 5 pmol/mL Dog CYP2B11 bactosomes (Cypex Limited) in the assay buffer: 75 mM potassium phosphate supplemented with 5 mM MgCl2, pH=8.0, containing 333 mM Glucose-6-phosphate and 30 U/mL Glucose-6-phosphate dehydrogenase. CYP2B6 enzyme mixture consisted of 2.5 pmol/ml of Vivid® Human CYP2B6 baculosomes (Thermofisher Scientific) in the assay buffer: 75 mM potassium phosphate, pH=8.0, containing 333 mM Glucose-6-phosphate and 30 U/mL Glucose-6-phosphate dehydrogenase.
(§2) After preparation, 50 μL of each enzyme mixture were added to each plate and incubated for 10 minutes at 37° C. After incubation, 10 μL of a substrate mixture containing 30 μM NADP^+ and 3 μM BOMCC in the phosphate buffer was added to the wells. The plate was incubated for 60 minutes at 37° C., and the fluorescence was monitored using 410/460 nm as excitation and emission wavelengths, respectively. A blank sample containing buffer solution was measured in same conditions and used to calculate the inhibition percentage of the activity of the enzymes in presence of the pesticide metrafenone.

Dog CYP2B11 = biological target: T4, Dog CYP2B11 (Canis lupus familiaris, UniProt P24460); experiment: Metrafenone inhibition assay on CYP2B11 (Example 5); assay type: biochemical; settings: 500 μg/L metrafenone; CYP2B11 5 pmol/mL; BOMCC 3 μM
T4 construct: purchased Cypex Limited; host or cells: bactosomes (bacterial membranes; E. coli by own knowledge)
T4 sequence (P24460 1-494): T1 sequence (P24460 1-494)
Procedure: as §1, §2

For N#Cc1c(Cl)c(Cl)c(Cl)c(C#N)c1Cl [Chlorothalonil], the “I(%)” value (CYP2B11 [1]) was 62.3%.

In the case of CCOP(=S)(OCC)Oc1nc(Cl)c(Cl)cc1Cl [Chlorpyrifos-ethyl], the “I (%) at 200 μg/L” value (CYP2B10 [2]) is reported as 26.8%, the “I (%) at 400 μg/L” value (CYP2B10 [2]) is reported as 46.8% and the “I(%)” value (CYP2B11 [1]) is reported as 94.2%.

In the case of COP(=S)(OC)Oc1nc(Cl)c(Cl)cc1Cl [Chlorpyrifos-methyl], the “Average I (%)” value (CYP2B10 [3]) is reported as 46.8%, the “I (%) at 200 μg/L” value (CYP2B10 [2]) is reported as 49.5% and the “I (%) at 400 μg/L” value (CYP2B10 [2]) is reported as 77.9%. The “I(%)” value (CYP2B11 [1]) was 96.0%.

For CC1(C)C(C=C(Cl)Cl)C1C(=O)OC(C#N)c1cccc(Oc2ccccc2)c1 (stereo not drawn) [Cypermethrin], the “I(%)” value (CYP2B11 [1]) was 17.5%.

In the case of Clc1ccc(C(c2ccc(Cl)cc2)C(Cl)(Cl)Cl)cc1 [DDT], the “I(%)” value (CYP2B11 [1]) is reported as 70.7%.

For CCOP(=S)(OCC)Oc1cc(C)nc(C(C)C)n1 [Diazinon], the “I(%)” value (CYP2B11 [1]) was 84.1%.

In the case of OC(c1ccc(Cl)cc1)(c1ccc(Cl)cc1)C(Cl)(Cl)Cl [Dicofol], the “I (%) at 200 μg/L” value (CYP2B10 [2]) is reported as 19.0%, the “I (%) at 400 μg/L” value (CYP2B10 [2]) is reported as 30.6% and the “I(%)” value (CYP2B10 [4]; MOBFC 0.0 μM, MOFC 10.0 μM) is reported as 72.9%. The “I(%)” value (CYP2B10 [4]; MOBFC 2.0 μM, MOFC 8.0 μM) was 50.6%, the “I(%)” value (CYP2B10 [4]; MOBFC 3.3 μM, MOFC 6.6 μM) was 37.4% and the “I(%)” value (CYP2B10 [4]; MOBFC 5.0 μM, MOFC 5.0 μM) was 24.3%. For the same compound, the “I(%)” value (CYP2B10 [4]; MOBFC 10.0 μM, MOFC 0.0 μM) was 16.8% and the “I(%)” value (CYP2B11 [1]) was 79.0%.

In the case of CC(C)NC(=O)N1CC(=O)N(c2cc(Cl)cc(Cl)c2)C1=O [Iprodione], the “I(%)” value (CYP2B11 [1]) is reported as 15.9%.

CCCC(Cn1cncn1)c1ccc(Cl)cc1Cl (stereo not drawn) [Penconazole] was tested, and the “I(%)” value (CYP2B11 [1]) was 87.8%.

In the case of CCCN(CCOc1c(Cl)cc(Cl)cc1Cl)C(=O)n1ccnc1 [Prochloraz], the “Average I (%)” value (CYP2B10 [3]) is reported as 54.2%, the “I (%) at 200 μg/L” value (CYP2B10 [2]) is reported as 60.3% and the “I (%) at 400 μg/L” value (CYP2B10 [2]) is reported as 72.0%. For the same compound, the “I(%)” value (CYP2B11 [1]) was 94.6%.

For CC12CC1(C)C(=O)N(c1cc(Cl)cc(Cl)c1)C2=O (stereo not drawn) [Procymidone], the “I(%)” value (CYP2B11 [1]) was 24.5%.

In the case of Fc1ccc(Oc2ccnc3cc(Cl)cc(Cl)c23)cc1 [Quinoxyfen], the “I(%)” value (CYP2B11 [1]) is reported as 18.1%.

CNC(=O)CSP(=S)(OC)OC [dimethoate] gave an inhibition at 60 min, 2 mg/L (CYP2B11 [5]) of 56.8%.

COc1cc(C)c(C(=O)c2c(OC)ccc(Br)c2C)c(OC)c1OC [metrafenone] was tested, and the “I(%)” value (Human CYP2B6) was 0.0% and the “I(%)” value (Dog CYP2B11) was 35.2%.
